Values quoted from earlier work, collected in patent US20220370615A1, “Prevention of Illicit Manufacture of Methamphetamine from Pseudoephedrine Using Food Flavor Excipients” (Satara Pharmaceuticals, priority 2021, published 2022).

Conditions: species and route not given

## CC(=O)c1cnccn1 [Acetylpyrazine]
  LD50: > 4000 mg/kg
